This is an account of results in patent publication US5395932A, “2,3-,4-,5-,6-,7-,8-,9- and/or 10-substituted dibenzoxazepine compounds, pharmaceutical compositions and methods of use” (G. D. Searle & Co., priority 1993, dated 1995).

Where a name gives a salt, the structure may show the parent alone.

A short description of assay [1]: Writhing Assay (PBQ-induced writhing, analgesia). The class given is in vivo, Charles River male albino mice. Particulars: Mus musculus, po, intragastric; for responders at 30 mg/kg: 30 mg per kilogram, 25 minutes before PBQ i.p., writhes ≤ one-half median of saline control, read-out: WRITHING ASSAY, number of mice out of 9 or 10 in which test compound produced analgesia (converted). The protocol:
The phrase "ED50 dose" as used herein means that dose of a compound or drug which produced a biological effect, such as producing analgesia, in 50% of the animals to which the compound or drug was administered. The Writhing Assay is one of the most widely-used experimental procedures for measuring the analgesic activity of different narcotic and nonnarcotic analgesic agents, and involves the continuous, chemically-induced pain of visceral origin to an animal, such as a mouse or rat. [Gyires et al., Arch. int. Pharmacodyn, 267, 131-140 (1984); […] al., Fed. Proc., 15, 494 (1956); Koster et al., Fed. Proc., 18, 412 (1959); and Witken et al., J. Pharmacol. exp. Ther., 133, 400-408 (1961).] Chemicals which may be used to induce this pain include phenylbenzoquinone (PBQ) and acetic acid. As a result of the chemical irritation to the animal, a characteristic stretching and writhing of the animal (dorsiflexion of the animal's back, extension of its hindlimbs and the strong contraction of its abdominal musculature) will generally occur. […] Drugs which reduce the number of writhes of the animal appear to restore the normal nociceptive threshold of the animal. […] Charles River male albino mice, weighing 20 to 30 grams were used in this assay. Twenty-five minutes after intragastric administration to nine or ten mice of 30 mg per kilogram of body weight of a compound of the present invention ("test compound"), […] per 10 g of body weight of a 0.025% w/v solution of PBQ was injected intraperitoneally into each mouse. Ten mice which were given saline in place of a test compound of the invention were used as a control group. Five minutes later, each mouse was individually placed into a glass beaker for observation, and the number of writhes occurring during the following ten-minute period was counted. A test compound was considered to have produced analgesia in a mouse if, in accordance with the conditions set forth above, and under the test criteria employed for this assay, after the administration of 30 mg per kilogram of body weight of a compound of the present invention to the mouse, the number of writhes elicited by a mouse injected with PBQ was equal to, or less than, one-half the median number of writhes recorded for the saline-treated control group of mice that day, as described by Taber in "Predictive Value of Analgesic Assays in Mice and Rats," Advances in Biochemical Psychopharmacology, 8, 191 (1974). The results for the particular compounds of the present invention analyzed in this assay, and discussed in the examples identified below which correspond thereto, are presented in Table 1 hereinbelow as fractions under the heading "WRITHING ASSAY." The fractions indicate the number of mice out of nine or ten in which a test compound produced analgesia. The standard initial screening dose of a test compound employed in this assay was 30 milligrams per […] of body weight. If this initial screening dose of the test compound produced analgesia in seven of nine or ten mice, then the effect of additional doses of the test compound on the writhing response was evaluated, and then the ED50 dose was generally calculated. (The slopes of the dose-response curves for all test compounds analyzed were compared as described by Tallarida and Murray, Manual of Pharmacologic Calculations, Page 11 (Springer Verlag, New York, 1981)). All ED50 doses calculated are also presented below as whole numbers in Table 1, under the heading "WRITHING ASSAY."
A general note: Writhing tests count abdominal constrictions after an irritant is injected.

Assay [2] concerns the target T1, prostaglandin E2-induced contractions of segments of guinea pig ileum (Cavia porcellus, UniProt A0A286XHJ6).
T1 construct: Segments of ileum about 2 cm long were then cut and mounted in a 10-mL tissue bath; from tissue; host or cells: guinea pig ileum segments
T1 sequence (A0A286XHJ6 1-405): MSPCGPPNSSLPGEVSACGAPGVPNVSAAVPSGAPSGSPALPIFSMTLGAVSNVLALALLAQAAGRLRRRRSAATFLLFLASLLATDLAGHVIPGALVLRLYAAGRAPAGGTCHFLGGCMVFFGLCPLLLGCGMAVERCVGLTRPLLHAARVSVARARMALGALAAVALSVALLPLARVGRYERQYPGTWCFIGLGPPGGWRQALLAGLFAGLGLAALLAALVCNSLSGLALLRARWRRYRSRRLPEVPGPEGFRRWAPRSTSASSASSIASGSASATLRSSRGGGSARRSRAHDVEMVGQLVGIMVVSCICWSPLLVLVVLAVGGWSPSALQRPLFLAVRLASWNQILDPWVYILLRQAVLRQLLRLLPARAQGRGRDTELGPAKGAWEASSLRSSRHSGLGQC
The assay can be described thus: Prostaglandin (PGE) Antagonism Assay (guinea pig ileum). Conditions: estimated from 3 micromolar (dose ratio ≥2) or Schild plot (dose ratio ≥5); 37° C.; read-out: PGE ANTAGONISM IN GUINEA PIG ILEUM (pA2) (converted). The class given is cell-based, male albino guinea pigs. An excerpt:
The phrase "EC50 concentration" as used herein means that concentration of a compound or drug which is necessary to elicit a 50% maximal biological response and, thus, which is necessary to elicit a 50% reduction in the contractions of guinea pig ileum segments in a prostaglandin antagonism assay. (b) Prostaglandin (PGE) Antagonism Assay In order to determine the effectiveness of several of the compounds of the present invention ("test compounds") as prostaglandin E2 antagonists,a prostaglandin antagonism assay was conducted, as described below, to determine the ability of these compounds to inhibit prostaglandin E2 -induced contractions of segments of guinea pig ileum. […] Male albino guinea pigs weighing 200 to 500 grams were sacrificed by cervical dislocation. The ilea were then quickly removed from the guinea pigs and placed in a modified Tyrode solution, a solution which is known to those skilled in the art, containing one-half of the usual amount of magnesium ions. Segments of ileum about 2 cm long were then cut and mounted in a 10-mL tissue bath containing the modified Tyrode solution. The solution was maintained at 37° C. and aerated with a gaseous mixture of 95% oxygen and 5% carbon dioxide. Data for a control prostaglandin E2 dose response curve plotting concentration of prostaglandin E2 versus the intensity of contractions, detected isotonically, was then obtained by experimentally adjusting the dose of the prostaglandin E2 being injected into the tissue bath, in a manner known by those of skill in the art. Solutions or suspensions containing an initial concentration (3 micromolar) of a test compound in modified Tyrode solution ("test solutions/suspensions") were then separately substituted for the control bath solution. Each test solution/suspension was then kept in constant contact with the ileum tissue, except for brief periods to drain the bath in preparation for rinsing with fresh test solution/suspension. A second prostaglandin E2 dose response curve was then generated for prostaglandin E2 in the presence of a test compound. A dose ratio of EC50 doses was then calculated from the results of each test in a manner known by those of skill in the art. A test compound was determined to be "active" if the initial concentration used yielded at least a two-fold shift (dose ratio greater than or equal to 2) in the dose response curve for prostaglandin E2. […] The compounds of the present invention which were tested in this assay, and for which results are presented in Table 1, correspond to the particular examples specified in Table 1.

`CCOC(=O)c1coc(CN2Cc3ccccc3Oc3ccc(Cl)cc32)n1` [Example 7, Ethyl 2-[(8-chlorodibenz[b,f][1,4]oxazepin-10(11H)yl)methyl]-4-oxazole carboxylate]: the responders at 30 mg/kg in assay [1] was 90%. In addition, in assay [2], the Kb was 0.794 µM.

With `O=C(O)c1coc(CN2Cc3ccccc3Oc3ccc(Cl)cc32)n1` [Example 8A, 2-[(8-chlorodibenz[b,f][1,4]oxazepin-10(11H)yl)methyl]-4-oxazole carboxylic acid, sodium salt], the responders at 30 mg/kg in assay [1] is 10%. Moreover, the Kb in assay [2] was 0.0398 µM.

Turning to `O=C(NCCc1ccccn1)c1coc(CN2Cc3ccccc3Oc3ccc(Cl)cc32)n1` [Example 9, 2-[(8-chlorodibenz[b,f][1,4]oxazepin-10(11H)yl)methyl]-N-[2-(2-pyridinyl)ethyl]-4-oxazolecarboxamide, hydrochloride], the responders at 30 mg/kg in assay [1] was 70%. For the same compound, in assay [2], the Kb was 0.2 µM.

As to `O=C(NCc1ccccn1)c1coc(CN2Cc3ccccc3Oc3ccc(Cl)cc32)n1` [Example 10, 2-[(8-chlorodibenz[b,f][1,4]oxazepin-10(11H)yl)methyl]-N-(2-pyridinylmethyl)-4-oxazolecarboxamide, monohydrochloride], in assay [1], the responders at 30 mg/kg was 20%. In assay [2], the Kb is 0.0316 µM.

As for `O=C(NCc1ccncc1)c1coc(CN2Cc3ccccc3Oc3ccc(Cl)cc32)n1` [Example 11, 2-[(8-chlorodibenz[b,f][1,4]oxazepin-10(11H)yl)methyl]-N-(4-pyridinylmethyl)-4-oxazolecarboxamide, monohydrochloride], the responders at 30 mg/kg in assay [1] was 90%. Moreover, the Kb in assay [2] is 0.0251 µM.

For `O=C(OCc1ccncc1)c1coc(CN2Cc3ccccc3Oc3ccc(Cl)cc32)n1` [Example 12, 4-pyridinylmethyl 2-[(8-chlorodibenz[b,f][1,4]oxazepin-10(11H) -yl)methyl]-4-oxazole carboxylate, hydrochloride], the responders at 30 mg/kg in assay [1] was 40%.

With `O=C(NCCc1ccncc1)c1coc(CN2Cc3ccccc3Oc3ccc(Cl)cc32)n1` [Example 14, 2-[(8-chlorodibenz[b,f][1,4]oxazepin-10(11H)yl)methyl]-N-[2-(4-pyridinyl)ethyl]-4-oxazolecarboxamide, hydrochloride, acetate], the responders at 30 mg/kg in assay [1] is 60%. Moreover, the Kb in assay [2] is 0.0158 µM.

As to `O=C(NCc1cccs1)c1coc(CN2Cc3ccccc3Oc3ccc(Cl)cc32)n1` [Example 15, 2-[(8-chlorodibenz[b,f][1,4]oxazepin-10(11H)yl)methyl]-N-(2-thienylmethyl)-4-oxazolecarboxamide], the responders at 30 mg/kg in assay [1] was 70%. Also, the Kb in assay [2] is 0.158 µM.

With `O=C(Nc1cncnc1)c1coc(CN2Cc3ccccc3Oc3ccc(Cl)cc32)n1` [Example 16, 2-[(8-chlorodibenz[b,f][1,4]oxazepin-10(11H)yl)methyl]-N-5-pyrimidinyl-4-oxazolecarboxamide], the Kb in assay [2] was 3.16 µM.

In the case of `O=C(Nc1ccncc1)c1coc(CN2Cc3ccccc3Oc3ccc(Cl)cc32)n1` [Example 17, 2-[(8-chlorodibenz[b,f][1,4]oxazepin-10(11H)yl)methyl]-N-4-pyridinyl-4-oxazolecarboxamide, hydrochloride], the Kb in assay [2] is 0.398 µM.

As for `CCOC(=O)c1csc(CN2Cc3ccccc3Oc3ccc(Cl)cc32)n1` [Example 19, ethyl 2-[(8-chlorodibenz[b,f][1,4]oxazepine-10(11H)yl)methyl]-4-thiazolecarboxylate], the responders at 30 mg/kg in assay [1] is 10%. Further, the Kb in assay [2] is 1.58 µM.

Take `O=C(O)c1csc(CN2Cc3ccccc3Oc3ccc(Cl)cc32)n1` [Example 20, 2-[(8-chlorodibenz[b,f][1,4]oxazepin-10(11H)yl)methyl]-4-thiazolecarboxylicacid, sodium salt]: the responders at 30 mg/kg in assay [1] was 50%. In assay [2], the Kb is 0.00794 µM.

For `O=C(NCc1ccncc1)c1csc(CN2Cc3ccccc3Oc3ccc(Cl)cc32)n1` [Example 21, 2-[(8-chlorodibenzb,f][1,4]oxazepin-10(11H)yl)methyl]-N-(4-pyridinylmethyl)-4-thiazolecarboxamide, acetate, hydrochloride], in assay [1], the responders at 30 mg/kg was 70%. In assay [2], the Kb is 0.794 µM.

In the case of `Cc1nc(CN2Cc3ccccc3Oc3ccc(Cl)cc32)cs1` [Example 23, 8-chloro-10,11-dihydro-10-[(2-methyl-4-thiazolyl)methyl]dibenz[b,f][1,4]oxazepine hydrochloride], in assay [1], the responders at 30 mg/kg was 11.1%.

As a reminder, the ED50 is the dose at which the effect has come halfway, by size or by number of responders. Read a low ED50 as greater potency. In assay [1] (mice, PBQ), `Cl.O=C(NCc1ccncc1)c1csc(N2Cc3ccccc3Oc3ccc(Cl)cc32)n1` [Example 26, 2-(8-Chlorodibenz[b,f][1,4]oxazepin-10(11H)-yl)-N-(4-pyridinylmethyl)-4-thiazolecarboxamide, monohydrochloride] displayed an ED50 of 9.77 mg/kg. Besides, in assay [2], the Kb is 0.794 µM.

With `CN(C)CCNC(=O)c1csc(N2Cc3ccccc3Oc3ccc(Cl)cc32)n1` [Example 27, 2-(8-Chlorodibenz[b,f][1,4]Oxazepin-10(11H)-yl)-N-[2-(dimethylamino)ethyl]-4-thiazolecarboxamide, monohydrochloride], in assay [1], the responders at 30 mg/kg is 60%.

`O=C(Nc1ccccn1)c1csc(N2Cc3ccccc3Oc3ccc(Cl)cc32)n1` [Example 30, 2-(8-Chlorodibenz[b,f][1,4]oxazepin-10(11H)-yl)-N-2-pyridinyl-4-thiazolecarboxamide, hydrochloride]: the responders at 30 mg/kg in assay [1] is 40%.
